From ChEMBL document CHEMBL1147193, “New 5-substituted thiazolo[3,2-b][1,2,4]triazol-6-ones: synthesis and anticancer evaluation” (2007)

Tests used:
Type in all cases: functional
OVCAR-4 = assay: Growth inhibition of human OVCAR4 cells after 48 hrs by SRB protein assay; conditions: OVCAR-4, 48 h
OVCAR-5 = assay: Growth inhibition of human OVCAR5 cells after 48 hrs by SRB protein assay; conditions: OVCAR-5, 48 h
OVCAR-8 = assay: Growth inhibition of human OVCAR8 cells after 48 hrs by SRB protein assay; conditions: OVCAR-8, 48 h
SK-OV-3 = assay: Growth inhibition of human SK-OV-3 cells after 48 hrs by SRB protein assay; conditions: SK-OV-3, 48 h
786-0 = assay: Growth inhibition of human 786-0 cells after 48 hrs by SRB protein assay; conditions: 786-0, 48 h
ACHN = assay: Growth inhibition of human ACHN cells after 48 hrs by SRB protein assay
A549 = assay: Growth inhibition of human A549/ATCC cells after 48 hrs by SRB protein assay; conditions: A549, 48 h
IGROV-1 = assay: Growth inhibition of human IGROV1 cells after 48 hrs by SRB protein assay; conditions: IGROV-1, 48 h
CCRF-CEM = assay: Growth inhibition of human CCRF-CEM cells after 48 hrs by SRB protein assay
SW-620 = assay: Growth inhibition of human SW620 cells after 48 hrs by SRB protein assay; conditions: SW-620, 48 h
Hs-578T = assay: Growth inhibition of human HS578T cells after 48 hrs by SRB protein assay
RPMI-8226 = assay: Growth inhibition of human RPMI8226 cells after 48 hrs by SRB protein assay; conditions: RPMI-8226, 48 h
NCI-H460 [1] = assay: Anticancer activity against human NCI-H460 cells assessed as growth of cells at 100 uM relative to untreated cells
SF-268 = assay: Anticancer activity against human SF268 cells assessed as growth of cells at 100 uM relative to untreated cells
MOLT-4 = assay: Growth inhibition of human MOLT4 cells after 48 hrs by SRB protein assay; conditions: MOLT-4, 48 h
HOP-62 = assay: Growth inhibition of human HOP62 cells after 48 hrs by SRB protein assay; conditions: HOP-62, 48 h
HOP-92 = assay: Growth inhibition of human HOP92 cells after 48 hrs by SRB protein assay; conditions: HOP-92, 48 h
NCI-H226 = assay: Growth inhibition of human NCI-H226 cells after 48 hrs by SRB protein assay; conditions: NCI-H226, 48 h
NCI-H460 [2] = assay: Growth inhibition of human NCI-H460 cells after 48 hrs by SRB protein assay; conditions: NCI-H460, 48 h
NCI-H522 = assay: Growth inhibition of human NCI-H522 cells after 48 hrs by SRB protein assay; conditions: NCI-H522, 48 h
HCC 2998 = assay: Growth inhibition of human HCC2998 cells after 48 hrs by SRB protein assay; conditions: HCC 2998, 48 h
HCT-116 = assay: Growth inhibition of human HCT116 cells after 48 hrs by SRB protein assay; conditions: HCT-116, 48 h
HCT-15 = assay: Growth inhibition of human HCT15 cells after 48 hrs by SRB protein assay; conditions: HCT-15, 48 h
SF-295 = assay: Growth inhibition of human SF295 cells after 48 hrs by SRB protein assay; conditions: SF-295, 48 h
LOX IMVI = assay: Growth inhibition of human LOX IMVI cells after 48 hrs by SRB protein assay
[3] = Growth inhibition of human MALME 3M cells after 48 hrs by SRB protein assay
M14 = assay: Growth inhibition of human M14 cells after 48 hrs by SRB protein assay; conditions: M14, 48 h
SK-MEL-2 = assay: Growth inhibition of human SK-MEL-2 cells after 48 hrs by SRB protein assay; conditions: SK-MEL-2, 48 h
SK-MEL-28 = assay: Growth inhibition of human SK-MEL-28 cells after 48 hrs by SRB protein assay; conditions: SK-MEL-28, 48 h
SK-MEL-5 = assay: Growth inhibition of human SK-MEL-5 cells after 48 hrs by SRB protein assay; conditions: SK-MEL-5, 48 h
UACC-257 = assay: Growth inhibition of human UACC257 cells after 48 hrs by SRB protein assay; conditions: UACC-257, 48 h
UACC-62 = assay: Growth inhibition of human UACC62 cells after 48 hrs by SRB protein assay; conditions: UACC-62, 48 h
RXF 393 = assay: Growth inhibition of human RXF393 cells after 48 hrs by SRB protein assay; conditions: RXF 393, 48 h
TK-10 = assay: Growth inhibition of human TK10 cells after 48 hrs by SRB protein assay; conditions: TK-10, 48 h
UO-31 = assay: Growth inhibition of human UO31 cells after 48 hrs by SRB protein assay; conditions: UO-31, 48 h
SN12C = assay: Growth inhibition of human SN12C cells after 48 hrs by SRB protein assay
PC-3 = assay: Growth inhibition of human PC3 cells after 48 hrs by SRB protein assay; conditions: PC-3, 48 h
MCF7 = assay: Growth inhibition of human MCF7 cells after 48 hrs by SRB protein assay; conditions: MCF7, 48 h
NCI/ADR-RES = assay: Growth inhibition of human NCI/ADR-RES cells after 48 hrs by SRB protein assay

Question: What does the source list for `O=C(CC1Sc2ncnn2C1=O)Nc1ccc(Br)cc1` (stereo unspecified)?
Answer: GI50 (OVCAR-4): 31.6 µM; TGI (OVCAR-4; read-out: Log TGI (converted)): > 100 µM; GI50 (OVCAR-5): 16.2 µM; TGI (OVCAR-5; read-out: Log TGI (converted)): 29.5 µM; GI50 (OVCAR-8): 18.2 µM; TGI (OVCAR-8; read-out: Log TGI (converted)): 38 µM; GI50 (SK-OV-3): > 100 µM; TGI (SK-OV-3; read-out: Log TGI (converted)): > 100 µM; GI50 (786-0): 16.6 µM; TGI (786-0; read-out: Log TGI (converted)): 30.2 µM; GI50 (ACHN): 15.1 µM; TGI (ACHN; read-out: Log TGI (converted)): 28.2 µM; GI50 (A549): 35.5 µM; TGI (A549; read-out: Log TGI (converted)): > 100 µM; GI50 (IGROV-1): 34.7 µM; TGI (IGROV-1; read-out: Log TGI (converted)): > 100 µM; GI50 (CCRF-CEM): 21.4 µM; TGI (CCRF-CEM; read-out: Log TGI (converted)): 55 µM; GI50 (SW-620): 44.7 µM; TGI (SW-620; read-out: Log TGI (converted)): > 100 µM; GI50 (Hs-578T): 7.24 µM; TGI (Hs-578T; read-out: Log TGI (converted)): 20 µM; GI50 (RPMI-8226): 23.4 µM; TGI (RPMI-8226; read-out: Log TGI (converted)): 64.6 µM; Activity (NCI-H460 [1]): 0%; Activity (SF-268): 100%; GI50 (MOLT-4): 25.1 µM; TGI (MOLT-4; read-out: Log TGI (converted)): 97.7 µM; GI50 (HOP-62): > 100 µM; TGI (HOP-62; read-out: Log TGI (converted)): > 100 µM; GI50 (HOP-92): 22.4 µM; TGI (HOP-92; read-out: Log TGI (converted)): 49 µM; GI50 (NCI-H226): 20 µM; TGI (NCI-H226; read-out: Log TGI (converted)): 45.7 µM; GI50 (NCI-H460 [2]): > 100 µM; TGI (NCI-H460 [2]; read-out: Log TGI (converted)): > 100 µM; GI50 (NCI-H522): 20.4 µM; TGI (NCI-H522; read-out: Log TGI (converted)): 57.5 µM; GI50 (HCC 2998): > 100 µM; TGI (HCC 2998; read-out: Log TGI (converted)): > 100 µM; GI50 (HCT-116): 15.8 µM; TGI (HCT-116; read-out: Log TGI (converted)): 29.5 µM; GI50 (HCT-15): 14.8 µM; TGI (HCT-15; read-out: Log TGI (converted)): 28.2 µM; GI50 (SF-295): > 100 µM; TGI (SF-295; read-out: Log TGI (converted)): > 100 µM; GI50 (LOX IMVI): 16.2 µM; TGI (LOX IMVI; read-out: Log TGI (converted)): 31.6 µM; GI50 [3]: 14.5 µM; TGI ([3]; read-out: Log TGI (converted)): 31.6 µM; GI50 (M14): 15.8 µM; TGI (M14; read-out: Log TGI (converted)): 29.5 µM; GI50 (SK-MEL-2): 66.1 µM; TGI (SK-MEL-2; read-out: Log TGI (converted)): > 100 µM; GI50 (SK-MEL-28): 23.4 µM; TGI (SK-MEL-28; read-out: Log TGI (converted)): 70.8 µM; GI50 (SK-MEL-5): 18.6 µM; TGI (SK-MEL-5; read-out: Log TGI (converted)): 38.9 µM; GI50 (UACC-257): 17.4 µM; TGI (UACC-257; read-out: Log TGI (converted)): 33.1 µM; GI50 (UACC-62): > 100 µM; TGI (UACC-62; read-out: Log TGI (converted)): > 100 µM; GI50 (RXF 393): 12.9 µM; TGI (RXF 393; read-out: Log TGI (converted)): 31.6 µM; GI50 (TK-10): 17.4 µM; TGI (TK-10; read-out: Log TGI (converted)): 31.6 µM; GI50 (UO-31): 18.6 µM; TGI (UO-31; read-out: Log TGI (converted)): 38 µM; GI50 (SN12C): 22.9 µM; TGI (SN12C; read-out: Log TGI (converted)): 63.1 µM; GI50 (PC-3): 26.9 µM; TGI (PC-3; read-out: Log TGI (converted)): 95.5 µM; GI50 (MCF7): 26.9 µM; TGI (MCF7; read-out: Log TGI (converted)): 74.1 µM; GI50 (NCI/ADR-RES): 25.1 µM; TGI (NCI/ADR-RES; read-out: Log TGI (converted)): 70.8 µM
